Assay results taken from ChEMBL document CHEMBL1909294, “Translating clinical findings into knowledge in drug safety evaluation--drug induced liver injury prediction system (DILIps)” (PLoS Comput Biol, 2011).

How the values were obtained:
Hepatotoxicity [1] = system: Hepatotoxicity;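 as to HepSE bilirubinemia: bilirubinemia hepatic side effect score drawn from the DILIps training data, a prediction system for drug-induced liver injury; call rule not given here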;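 as to HepSE cholecystitis: Cholecystitis-related hepatic side effect score drawn from the DILIps (drug-induced liver injury prediction) training data set; call rule not given here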;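 as to HepSE cholelithiasis: hepatic side effect score for cholelithiasis, drawn from the DILIps training data for predicting drug-induced liver injury; call rule not given here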;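 as to HepSE cirrhosis: cirrhosis hepatic side effect score taken from the DILIps (drug-induced liver injury prediction) training set; call rule not given here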;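 as to HepSE elevated liver function tests: hepatic side effect score for raised liver function tests, as recorded in the DILIps training set used for predicting drug-induced liver injury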; as to HepSE hepatic failure: call rule not given here;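 as to HepSE hepatomegaly: hepatic side effect score for hepatomegaly, taken from the training set of the DILIps drug-induced liver injury prediction system; call rule not given here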
Hepatotoxicity [2] = system: Hepatotoxicity; remark: listed apart in the source;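 as to HepSE bilirubinemia: bilirubinemia hepatic side effect score drawn from the DILIps training data, a prediction system for drug-induced liver injury; call rule not given here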;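 as to HepSE cholecystitis: Cholecystitis-related hepatic side effect score drawn from the DILIps (drug-induced liver injury prediction) training data set; call rule not given here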;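 as to HepSE cholelithiasis: hepatic side effect score for cholelithiasis, drawn from the DILIps training data for predicting drug-induced liver injury; call rule not given here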;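 as to HepSE cirrhosis: cirrhosis hepatic side effect score taken from the DILIps (drug-induced liver injury prediction) training set; call rule not given here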;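 as to HepSE elevated liver function tests: hepatic side effect score for raised liver function tests, as recorded in the DILIps training set used for predicting drug-induced liver injury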; as to HepSE hepatic failure: call rule not given here
Hepatotoxicity [3] = system: Hepatotoxicity; remark: listed apart in the source;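 as to HepSE bilirubinemia: bilirubinemia hepatic side effect score drawn from the DILIps training data, a prediction system for drug-induced liver injury; call rule not given here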;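 as to HepSE cholecystitis: Cholecystitis-related hepatic side effect score drawn from the DILIps (drug-induced liver injury prediction) training data set; call rule not given here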;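 as to HepSE cholelithiasis: hepatic side effect score for cholelithiasis, drawn from the DILIps training data for predicting drug-induced liver injury; call rule not given here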;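 as to HepSE cirrhosis: cirrhosis hepatic side effect score taken from the DILIps (drug-induced liver injury prediction) training set; call rule not given here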;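 as to HepSE elevated liver function tests: hepatic side effect score for raised liver function tests, as recorded in the DILIps training set used for predicting drug-induced liver injury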; as to HepSE hepatic failure: call rule not given here
Hepatotoxicity [4] = system: Hepatotoxicity; remark: listed apart in the source;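 as to HepSE bilirubinemia: bilirubinemia hepatic side effect score drawn from the DILIps training data, a prediction system for drug-induced liver injury; call rule not given here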;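 as to HepSE cholecystitis: Cholecystitis-related hepatic side effect score drawn from the DILIps (drug-induced liver injury prediction) training data set; call rule not given here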;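 as to HepSE cholelithiasis: hepatic side effect score for cholelithiasis, drawn from the DILIps training data for predicting drug-induced liver injury; call rule not given here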;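 as to HepSE cirrhosis: cirrhosis hepatic side effect score taken from the DILIps (drug-induced liver injury prediction) training set; call rule not given here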;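 as to HepSE elevated liver function tests: hepatic side effect score for raised liver function tests, as recorded in the DILIps training set used for predicting drug-induced liver injury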; as to HepSE hepatic failure: call rule not given here
Hepatotoxicity [5] = system: Hepatotoxicity; remark: listed apart in the source; as to HepSE hepatic failure: call rule not given here
Hepatotoxicity [6] = system: Hepatotoxicity; remark: listed apart in the source; as to HepSE hepatic failure: call rule not given here
Hepatotoxicity [7] = system: Hepatotoxicity; remark: listed apart in the source
Hepatotoxicity [8] = system: Hepatotoxicity; remark: listed apart in the source
Hepatotoxicity [9] = system: Hepatotoxicity; remark: listed apart in the source
Hepatotoxicity [10] = system: Hepatotoxicity; remark: listed apart in the source
Hepatotoxicity [11] = system: Hepatotoxicity; remark: listed apart in the source
Hepatotoxicity [12] = system: Hepatotoxicity; remark: listed apart in the source
Hepatotoxicity [13] = system: Hepatotoxicity; remark: listed apart in the source
Hepatotoxicity [14] = system: Hepatotoxicity; remark: listed apart in the source

Structure (SMILES) | HepSE_bilirubinemia (Hepatotoxicity [1]) | HepSE_cholecystitis (Hepatotoxicity [2]) | HepSE_cholelithiasis (Hepatotoxicity [3]) | HepSE_cirrhosis (Hepatotoxicity [4]) | HepSE_elevated liver function tests (Hepatotoxicity [5]) | HepSE_hepatic failure (Hepatotoxicity [6]) | HepSE_hepatic necrosis (Hepatotoxicity [7]) | HepSE_hepatitis (Hepatotoxicity [8]) | HepSE_hepatomegaly (Hepatotoxicity [9]) | HepSE_jaundice (Hepatotoxicity [10]) | HepSE_liver disease (Hepatotoxicity [11]) | HepSE_liver fatty (Hepatotoxicity [12]) | HepSE_liver function tests abnormal (Hepatotoxicity [13]) | HepSE_Combined Scores (Hepatotoxicity [14]) | further results
CO[C@H]1C[C@@H]2CC[C@@H](C)[C@@](O)(O2)C(=O)C(=O)N2CCCC[C@H]2C(=O)O[C@H]([C@H](C)C[C@@H]2CC[C@@H](O)[C@H](OC)C2)CC(=O)[C@H](C)/C=C(\C)[C@@H](O)[C@@H](OC)C(=O)[C@H](C)C[C@H](C)/C=C/C=C/C=C/1C [SIROLIMUS] | 1 | 0 | 0 | 0 | 0 | 0 | 1 | 0 | 0 | 0 | 0 | 0 | 1 | 3 | –
CC(=O)[O-].[Na+] [SODIUM ACETATE] | – | – | – | – | – | – | – | – | – | – | – | – | – | – | HepSE_bilirubinemia (Hepatotoxicity [1]; Liver): 0; HepSE_cholecystitis (Hepatotoxicity [2]; Liver): 0; HepSE_cholelithiasis (Hepatotoxicity [3]; Liver): 0; HepSE_cirrhosis (Hepatotoxicity [4]; Liver): 0; HepSE_elevated liver function tests (Hepatotoxicity [5]; Liver): 0; HepSE_hepatic failure (Hepatotoxicity [6]; Liver): 0; HepSE_hepatic necrosis (Hepatotoxicity [7]; Liver): 0; HepSE_hepatitis (Hepatotoxicity [8]; Liver): 0; HepSE_hepatomegaly (Hepatotoxicity [9]; Liver): 0; HepSE_jaundice (Hepatotoxicity [10]; Liver): 0; HepSE_liver disease (Hepatotoxicity [11]; Liver): 0; HepSE_liver fatty (Hepatotoxicity [12]; Liver): 0; HepSE_liver function tests abnormal (Hepatotoxicity [13]; Liver): 0; HepSE_Combined Scores (Hepatotoxicity [14]; Liver): 0
O=C([O-])O.[Na+] [SODIUM BICARBONATE] | – | – | – | – | – | – | – | – | – | – | – | – | – | – | HepSE_bilirubinemia (Hepatotoxicity [1]; Liver): 0; HepSE_cholecystitis (Hepatotoxicity [2]; Liver): 0; HepSE_cholelithiasis (Hepatotoxicity [3]; Liver): 0; HepSE_cirrhosis (Hepatotoxicity [4]; Liver): 0; HepSE_elevated liver function tests (Hepatotoxicity [5]; Liver): 0; HepSE_hepatic failure (Hepatotoxicity [6]; Liver): 0; HepSE_hepatic necrosis (Hepatotoxicity [7]; Liver): 0; HepSE_hepatitis (Hepatotoxicity [8]; Liver): 0; HepSE_hepatomegaly (Hepatotoxicity [9]; Liver): 0; HepSE_jaundice (Hepatotoxicity [10]; Liver): 0; HepSE_liver disease (Hepatotoxicity [11]; Liver): 0; HepSE_liver fatty (Hepatotoxicity [12]; Liver): 0; HepSE_liver function tests abnormal (Hepatotoxicity [13]; Liver): 0; HepSE_Combined Scores (Hepatotoxicity [14]; Liver): 0
[Cl-].[Na+] [SODIUM CHLORIDE] | 0 | 0 | 0 | 0 | 0 | 0 | 0 | 0 | 0 | 0 | 0 | 0 | 0 | 0 | –
O=C(O)CCC(=O)O.O=C(O[C@H]1CN2CCC1CC2)N1CCc2ccccc2[C@@H]1c1ccccc1 [SOLIFENACIN SUCCINATE] | 0 | 0 | 0 | 0 | 0 | 0 | 0 | 0 | 0 | 0 | 0 | 0 | 1 | 1 | –
CNC(=O)c1cc(Oc2ccc(NC(=O)Nc3ccc(Cl)c(C(F)(F)F)c3)cc2)ccn1 [SORAFENIB] | 0 | 1 | 0 | 0 | 0 | 0 | 0 | 0 | 0 | 1 | 0 | 0 | 0 | 2 | –
CC(C)NCC(O)c1ccc(NS(C)(=O)=O)cc1 (stereo not drawn) [SOTALOL] | 0 | 0 | 0 | 0 | 0 | 0 | 0 | 0 | 0 | 0 | 0 | 0 | 0 | 0 | –
CN[C@@H]1[C@H](O)[C@H](NC)[C@H]2O[C@@]3(O)C(=O)C[C@@H](C)O[C@H]3O[C@@H]2[C@H]1O [SPECTINOMYCIN] | 0 | 0 | 0 | 0 | 0 | 0 | 0 | 0 | 0 | 0 | 0 | 0 | 0 | 0 | –
CC(=O)S[C@@H]1CC2=CC(=O)CC[C@]2(C)[C@H]2CC[C@@]3(C)[C@@H](CC[C@@]34CCC(=O)O4)[C@H]12 [SPIRONOLACTONE] | 0 | 0 | 0 | 0 | 0 | 0 | 0 | 0 | 0 | 0 | 0 | 0 | 0 | 0 | –
Cc1cn([C@H]2C=C[C@@H](CO)O2)c(=O)[nH]c1=O [STAVUDINE] | 1 | 0 | 0 | 0 | 0 | 1 | 0 | 1 | 0 | 0 | 1 | 1 | 0 | 5 | –
[H]/N=C(/N)N[C@H]1[C@H](O)[C@@H](O)[C@H](O[C@@H]2O[C@@H](C)[C@](O)(C=O)[C@H]2O[C@@H]2O[C@@H](CO)[C@H](O)[C@@H](O)[C@@H]2NC)[C@@H](N/C(N)=N\[H])[C@@H]1O [STREPTOMYCIN] | – | – | – | – | – | – | – | – | – | – | – | – | – | – | HepSE_bilirubinemia (Hepatotoxicity [1]; Liver): 0; HepSE_cholecystitis (Hepatotoxicity [2]; Liver): 0; HepSE_cholelithiasis (Hepatotoxicity [3]; Liver): 0; HepSE_cirrhosis (Hepatotoxicity [4]; Liver): 0; HepSE_elevated liver function tests (Hepatotoxicity [5]; Liver): 0; HepSE_hepatic failure (Hepatotoxicity [6]; Liver): 0; HepSE_hepatic necrosis (Hepatotoxicity [7]; Liver): 0; HepSE_hepatitis (Hepatotoxicity [8]; Liver): 0; HepSE_hepatomegaly (Hepatotoxicity [9]; Liver): 0; HepSE_jaundice (Hepatotoxicity [10]; Liver): 0; HepSE_liver disease (Hepatotoxicity [11]; Liver): 0; HepSE_liver fatty (Hepatotoxicity [12]; Liver): 0; HepSE_liver function tests abnormal (Hepatotoxicity [13]; Liver): 0; HepSE_Combined Scores (Hepatotoxicity [14]; Liver): 0
CN(N=O)C(=O)N[C@@H](C=O)[C@@H](O)[C@H](O)[C@H](O)CO [STREPTOZOCIN] | 0 | 0 | 0 | 0 | 0 | 0 | 0 | 0 | 0 | 0 | 0 | 0 | 0 | 0 | –
Clc1ccc(CSC(Cn2ccnc2)c2ccc(Cl)cc2Cl)cc1 (stereo not drawn) [SULCONAZOLE] | 0 | 0 | 0 | 0 | – | 0 | 0 | 0 | 0 | 0 | 0 | 0 | – | 0 | HepSE_elevated liver function tests (Hepatotoxicity [5]; Liver): 0; HepSE_liver function tests abnormal (Hepatotoxicity [13]; Liver): 0
CC(=O)NS(=O)(=O)c1ccc(N)cc1 [SULFACETAMIDE] | 0 | 0 | 0 | 0 | 0 | 0 | 1 | 0 | 0 | 0 | 0 | 0 | 0 | 1 | –
O=C(O)c1cc(/N=N/c2ccc(S(=O)(=O)Nc3ccccn3)cc2)ccc1O [SULFASALAZINE] | 0 | 0 | 0 | 1 | 1 | 1 | 1 | 1 | 0 | 1 | 0 | 0 | 1 | 7 | –
O=C1C(CC[S+]([O-])c2ccccc2)C(=O)N(c2ccccc2)N1c1ccccc1 (stereo not drawn) [SULFINPYRAZONE] | 0 | 0 | 0 | 0 | 0 | 0 | 0 | 0 | 0 | 0 | 0 | 0 | 0 | 0 | –
Cc1noc(NS(=O)(=O)c2ccc(N)cc2)c1C [SULFISOXAZOLE] | 0 | 0 | 0 | 0 | 0 | 0 | 0 | 1 | 0 | 1 | 0 | 0 | 0 | 2 | –
